Key:
Details in all cases: incubation time: 72 h
MDA-MB-436 [1] = assay: normalised response (% of control), CellTiter-Glo; higher = more viable cells (100 = DMSO, 0 = benzethonium chloride kill control)
Procedure, shortened: (§1)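 CellTox Green fluorescence (485/520 nm) and, after 10 min at room temperature, CellTiter-Glo luminescence were read from breast cancer cell lines incubated 72 h in 384-well plates. Cells were seeded as 20 µl suspension onto compound at 5 concentrations in 10-fold steps over a 10,000-fold range chosen per compound. Each plate was normalised to 0.1 % DMSO (100) and a positive kill control (0). Values are normalised signals, one per concentration.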

CAL-51 [2] = assay: as above
Procedure, shortened: as §1

SK-BR-3 = assay: as above
Procedure, shortened: as §1

HCC1599 [3] = assay: as above
Procedure, shortened: as §1

CAL-148 [4] = assay: as above
Procedure, shortened: as §1

HCC1143 [5] = assay: as above
Procedure, shortened: as §1

MFM-223 [6] = assay: as above
Procedure, shortened: as §1

BT-474 [7] = assay: as above
Procedure, shortened: as §1

HCC1937 [8] = assay: as above
Procedure, shortened: as §1

DU-4475 [9] = assay: as above
Procedure, shortened: as §1

MCF-10A [10] = assay: as above
Procedure, shortened: as §1

BT-549 [11] = assay: as above
Procedure, shortened: as §1

MDA-MB-468 [12] = assay: as above
Procedure, shortened: as §1

MDA-MB-231 [13] = assay: as above
Procedure, shortened: as §1

CAL-120 [14] = assay: as above
Procedure, shortened: as §1

CAL-85-1 [15] = assay: as above
Procedure, shortened: as §1

MDA-MB-453 [16] = assay: as above
Procedure, shortened: as §1

HDQ-P1 [17] = assay: as above
Procedure, shortened: as §1

Hs578T [18] = assay: as above
Procedure, shortened: as §1

MDA-MB-436 [19] = assay: normalised response (% of control), CellTox Green; higher = less cell death (100 = DMSO, 0 = benzethonium chloride kill control)
Procedure, shortened: as §1

CAL-51 [20] = assay: as above
Procedure, shortened: as §1

HCC1599 [21] = assay: as above
Procedure, shortened: as §1

CAL-148 [22] = assay: as above
Procedure, shortened: as §1

HCC1143 [23] = assay: as above
Procedure, shortened: as §1

MFM-223 [24] = assay: as above
Procedure, shortened: as §1

BT-474 [25] = assay: as above
Procedure, shortened: as §1

HCC1937 [26] = assay: as above
Procedure, shortened: as §1

DU-4475 [27] = assay: as above
Procedure, shortened: as §1

MCF-10A [28] = assay: as above
Procedure, shortened: as §1

BT-549 [29] = assay: as above
Procedure, shortened: as §1

MDA-MB-468 [30] = assay: as above
Procedure, shortened: as §1

MDA-MB-231 [31] = assay: as above
Procedure, shortened: as §1

CAL-120 [32] = assay: as above
Procedure, shortened: as §1

CAL-85-1 [33] = assay: as above
Procedure, shortened: as §1

MDA-MB-453 [34] = assay: as above
Procedure, shortened: as §1

HDQ-P1 [35] = assay: as above
Procedure, shortened: as §1

Hs578T [36] = assay: as above
Procedure, shortened: as §1

| Compound | normalised response (MDA-MB-436 [1]) | normalised response (CAL-51 [2]) | normalised response (SK-BR-3) | normalised response (HCC1599 [3]) | normalised response (CAL-148 [4]) | normalised response (HCC1143 [5]) | normalised response (MFM-223 [6]) | normalised response (BT-474 [7]) | normalised response (HCC1937 [8]) | normalised response (DU-4475 [9]) | normalised response (MCF-10A [10]) | normalised response (BT-549 [11]) | normalised response (MDA-MB-468 [12]) | normalised response (MDA-MB-231 [13]) | normalised response (CAL-120 [14]) | normalised response (CAL-85-1 [15]) | normalised response (MDA-MB-453 [16]) | normalised response (HDQ-P1 [17]) | normalised response (Hs578T [18]) | normalised response (MDA-MB-436 [19]) | normalised response (CAL-51 [20]) | normalised response (HCC1599 [21]) | normalised response (CAL-148 [22]) | normalised response (HCC1143 [23]) | normalised response (MFM-223 [24]) | normalised response (BT-474 [25]) | normalised response (HCC1937 [26]) | normalised response (DU-4475 [27]) | normalised response (MCF-10A [28]) | normalised response (BT-549 [29]) | normalised response (MDA-MB-468 [30]) | normalised response (MDA-MB-231 [31]) | normalised response (CAL-120 [32]) | normalised response (CAL-85-1 [33]) | normalised response (MDA-MB-453 [34]) | normalised response (HDQ-P1 [35]) | normalised response (Hs578T [36]) |
| --- | --- | --- | --- | --- | --- | --- | --- | --- | --- | --- | --- | --- | --- | --- | --- | --- | --- | --- | --- | --- | --- | --- | --- | --- | --- | --- | --- | --- | --- | --- | --- | --- | --- | --- | --- | --- | --- |
| CCn1c(-c2nonc2N)nc2cnc(Oc3cccc(NC(=O)c4ccc(OCCN5CCOCC5)cc4)c3)cc21 (1000 nM) | 98.1% | 83.2% | 81.8% | 91.3% | 86.7% | 97.9% | 94.2% | 82.6% | 98.2% | 91.8% | 75.9% | 73.1% | 83% | 80.5% | 72.6% | 102% | 95.6% | 89.9% | 73.5% | 88.7% | 79.7% | 95% | 83.5% | 95.2% | 101% | 101% | 73.9% | 95.2% | 104% | 113% | 111% | 79.5% | 99% | 109% | 98.7% | 107% | 96.5% |
| CNC(=O)c1cccc(-c2ccc3c(N4CCOC[C@@H]4C)nc(N4CCOC[C@@H]4C)nc3n2)c1 [AZD2014] (1000 nM) | 51.6% | 28.8% | 24.3% | 98.5% | 35.1% | 36.9% | 33.7% | 59.5% | 56.7% | 67.9% | 46.5% | 34.5% | 43.3% | 57.8% | 32.5% | 36.9% | 39.8% | 40.2% | 43.6% | 82.4% | 92.3% | 92.1% | 46.1% | 97.5% | 61.1% | 96.9% | 70.8% | 102% | 104% | 104% | 132% | 104% | 105% | 104% | 102% | 100% | 102% |
| Nc1cc(C(F)(F)F)c(-c2cc(N3CCOCC3)nc(N3CCOCC3)n2)cn1 [Buparlisib] (1000 nM) | 102% | 90.4% | 84% | 102% | 96.2% | 94% | 53.3% | 99.8% | 89.5% | 82.9% | 55.6% | 89.6% | 82.9% | 90.3% | 88% | 95.1% | 99% | 70.9% | 91.1% | 90% | 107% | 95.4% | 91.7% | 95.9% | 97.5% | 94.7% | 96.8% | 95.6% | -21.3% | 113% | 165% | 80% | 100% | 106% | 98.9% | 98.7% | 107% |
| CCOC(=O)CCNc1cc(N2CCc3ccccc3CC2)nc(-c2ccccn2)n1 [GSK-J4] (10000 nM) | 22.8% | 12.2% | 57.2% | 45.9% | 10.1% | 41.2% | 42.3% | 44.7% | 49.4% | 30.6% | 45.2% | 20.8% | 12.7% | 30.7% | 61.7% | 20.1% | 33.1% | 56.3% | 59.3% | 88.8% | 52.1% | 80.2% | 53.5% | 68.1% | 76.9% | -18.4% | 100% | 79.9% | 89.3% | 81.8% | 40.1% | 57.7% | 87.7% | 2.31% | 88.5% | 49.9% | -14.7% |
| Cc1cc(Nc2cc(CN3CCOCC3)c3nc(C)c(Cc4ccc(Cl)cc4F)n3n2)n[nH]1 [Gandotinib] (1000 nM) | 86.4% | 55% | 82.4% | 124% | 96.7% | 88.6% | 69.7% | 75.8% | 96.7% | 99.9% | 96.6% | 77% | 53.1% | 70.7% | 90.4% | 78.1% | 107% | 90% | 86.7% | 66.1% | 71.4% | 104% | 104% | 97% | 33% | 104% | 101% | 102% | 90.8% | 119% | 99.5% | 101% | 97.4% | 78.5% | 107% | 105% | 101% |
| COc1cc2c(NC3CCN(C(C)C)CC3)nc(N3CCC(F)(F)CC3)nc2cc1OCCCN1CCCC1 [UNC0642] (1000 nM) | 90.9% | 108% | 96.4% | 93.1% | 89.1% | 91.2% | 91.2% | 109% | 94% | 98.7% | 84.6% | 92.4% | 85.9% | 95.4% | 89% | 93.2% | 94.6% | 99.7% | 100% | 61.8% | 98% | 97.6% | 94.5% | 102% | 88.9% | 97.4% | 108% | 96.4% | 90.6% | 86.2% | 146% | 92.8% | 96.9% | 97.7% | 102% | 104% | 67.8% |

Reference: the supplement of paper PMC4862054
